From paper PMC11044217 (ACS Omega, 2024) come the findings set out here.

The IC50 is the concentration that inhibits the measured activity by half. Low readings indicate inhibition by little substance, high ones a need for much substance. By inhibition is commonly meant the drop in the measured response relative to a control, in per cent. As a reminder, the Papp is the rate of passage across a membrane or cell layer, normalised by area and donor concentration.

hBACE-1, sequence (P56817 46-501): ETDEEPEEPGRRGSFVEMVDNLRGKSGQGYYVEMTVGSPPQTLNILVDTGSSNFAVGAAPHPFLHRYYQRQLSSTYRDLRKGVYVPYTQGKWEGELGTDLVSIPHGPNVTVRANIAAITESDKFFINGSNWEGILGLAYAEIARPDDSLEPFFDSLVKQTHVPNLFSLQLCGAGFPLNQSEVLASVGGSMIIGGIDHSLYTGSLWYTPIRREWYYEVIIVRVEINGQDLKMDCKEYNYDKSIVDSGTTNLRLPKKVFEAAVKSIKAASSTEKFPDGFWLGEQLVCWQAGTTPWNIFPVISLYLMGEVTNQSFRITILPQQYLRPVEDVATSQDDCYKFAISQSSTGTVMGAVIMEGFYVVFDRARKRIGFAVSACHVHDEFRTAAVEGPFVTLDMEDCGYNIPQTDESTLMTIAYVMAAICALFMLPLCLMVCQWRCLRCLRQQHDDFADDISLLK
hBChE, sequence (P06276 29-602): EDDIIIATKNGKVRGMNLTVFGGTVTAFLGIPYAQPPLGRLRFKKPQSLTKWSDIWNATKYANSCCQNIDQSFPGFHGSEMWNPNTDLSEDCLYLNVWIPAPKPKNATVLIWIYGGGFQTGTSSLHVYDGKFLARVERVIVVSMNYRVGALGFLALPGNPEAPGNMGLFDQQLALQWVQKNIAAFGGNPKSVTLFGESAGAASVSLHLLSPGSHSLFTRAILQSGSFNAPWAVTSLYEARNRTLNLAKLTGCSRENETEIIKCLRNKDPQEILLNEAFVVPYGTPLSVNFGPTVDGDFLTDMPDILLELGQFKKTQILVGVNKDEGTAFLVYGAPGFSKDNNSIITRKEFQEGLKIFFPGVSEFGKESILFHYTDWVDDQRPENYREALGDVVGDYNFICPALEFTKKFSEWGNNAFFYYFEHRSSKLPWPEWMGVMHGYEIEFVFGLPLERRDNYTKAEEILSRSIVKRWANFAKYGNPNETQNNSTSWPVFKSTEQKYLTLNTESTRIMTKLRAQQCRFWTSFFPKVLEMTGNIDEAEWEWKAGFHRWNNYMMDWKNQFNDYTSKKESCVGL

The test system of one data set is Swiss albino mice. As to the kind of experiment: Scopolamine-induced Y-maze test. It counts as in vivo. Particulars: scopolamine-induced cognitive dysfunction mice model, p < 0.001.
On to `c1ccc(-c2nnc(CN3CCN(c4ccccn4)CC3)o2)cc1` [5AD, 2-Phenyl-5-((4-(pyridin-2-yl)piperazin-1-yl)methyl)-1,3,4-oxadiazole], for which the learning and memory entry was “significant improvement in learning and memory”.

Another data set has as its target hBACE-1 (Homo sapiens, UniProt P56817). The data set is described as follows: BACE-1 inhibition, FRET-based fluorometric assay.
Conditions: not given
The class given is biochemical.
Molecule `c1ccc(CN2CCN(Cc3nnc(-c4ccccc4)o3)CC2)cc1` [5AB, 2-((4-Benzylpiperazin-1-yl)methyl)-5-phenyl-1,3,4-oxadiazole] yielded a concentration for half-maximal inhibition (IC50) above 10000 nM.

Consider `c1ccc(-c2nnc(CN3CCN(C(c4ccccc4)c4ccccc4)CC3)o2)cc1` [5AC, 2-((4-Benzhydrylpiperazin-1-yl)methyl)-5-phenyl-1,3,4-oxadiazole], for which the IC50 came out at 5620 ± 73 nM.

Molecule `c1ccc(-c2nnc(CN3CCN(c4ccccn4)CC3)o2)cc1` [5AD, 2-Phenyl-5-((4-(pyridin-2-yl)piperazin-1-yl)methyl)-1,3,4-oxadiazole] showed an IC50 of 1340 ± 78 nM.

In turn, `O=[N+]([O-])c1ccc(N2CCN(Cc3nnc(-c4ccccc4)o3)CC2)cc1` [5AF, 2-((4-(4-Nitrophenyl)piperazin-1-yl)methyl)-5-phenyl-1,3,4-oxadiazole] came in with an IC50 of 6242 ± 30 nM.

For `Cc1ccc(N2CCN(Cc3nnc(-c4ccccc4)o3)CC2)cc1` [5AG, 2-Phenyl-5-((4-(p-tolyl)piperazin-1-yl)methyl)-1,3,4-oxadiazole], the IC50 worked out at 3810 ± 39 nM.

As for `COc1ccc(N2CCN(Cc3nnc(-c4ccccc4)o3)CC2)cc1` [5AH, 2-((4-(4-Methoxyphenyl)piperazin-1-yl)methyl)-5-phenyl-1,3,4-oxadiazole], the half-maximal inhibitory concentration (IC50) stood at 1685 ± 12 nM.

For `Cc1ccc(CN2CCN(Cc3nnc(-c4ccccc4)o3)CC2)cc1` [5AI, 2-((4-(4-Methylbenzyl)piperazin-1-yl)methyl)-5-phenyl-1,3,4-oxadiazole], the IC50 was 392 ± 21 nM.

The next data set concerns the target hBChE (Homo sapiens, UniProt P06276). As to the kind of experiment: hBChE inhibition, Ellman's colorimetric method. It counts as biochemical. As to conditions: IC50 ± SEM hBChE, n = 3. On the technique in general: Ellman's reagent forms a yellow product with free thiols.
With `c1ccc(-c2nnc(CN3CCN(c4ccccc4)CC3)o2)cc1` [5AA, 2-Phenyl-5-((4-phenylpiperazin-1-yl)methyl)-1,3,4-oxadiazole], the IC50 is above 10000 nM.

In turn, `c1ccc(CN2CCN(Cc3nnc(-c4ccccc4)o3)CC2)cc1` [5AB, 2-((4-Benzylpiperazin-1-yl)methyl)-5-phenyl-1,3,4-oxadiazole] displayed an IC50 above 10000 nM.

Molecule `c1ccc(-c2nnc(CN3CCN(c4ccccn4)CC3)o2)cc1` [5AD, 2-Phenyl-5-((4-(pyridin-2-yl)piperazin-1-yl)methyl)-1,3,4-oxadiazole] registered an IC50 of at least 10000 nM.

In turn, `O=[N+]([O-])c1ccc(N2CCN(Cc3nnc(-c4ccccc4)o3)CC2)cc1` [5AF, 2-((4-(4-Nitrophenyl)piperazin-1-yl)methyl)-5-phenyl-1,3,4-oxadiazole] showed an IC50 above 10000 nM.

The molecule `Cc1ccc(N2CCN(Cc3nnc(-c4ccccc4)o3)CC2)cc1` [5AG, 2-Phenyl-5-((4-(p-tolyl)piperazin-1-yl)methyl)-1,3,4-oxadiazole] gave an IC50 above 10000 nM.

In turn, `COc1ccc(N2CCN(Cc3nnc(-c4ccccc4)o3)CC2)cc1` [5AH, 2-((4-(4-Methoxyphenyl)piperazin-1-yl)methyl)-5-phenyl-1,3,4-oxadiazole] displayed an IC50 above 10000 nM.

Tested on in a further data set: not listed separately
As to the kind of experiment: DPPH radical scavenging assay. Particulars: in methanol. In general terms: The DPPH test is a chemical assay of radical scavenging.
With `c1ccc(CN2CCN(Cc3nnc(-c4ccccc4)o3)CC2)cc1` [5AB, 2-((4-Benzylpiperazin-1-yl)methyl)-5-phenyl-1,3,4-oxadiazole], the “% RSA of DPPH ± SEM at 25 μM” value turned out to be 42.24%.

`c1ccc(-c2nnc(CN3CCN(c4ccccn4)CC3)o2)cc1` [5AD, 2-Phenyl-5-((4-(pyridin-2-yl)piperazin-1-yl)methyl)-1,3,4-oxadiazole]: the “% RSA of DPPH ± SEM at 25 μM” value worked out at 44.35%.

For the molecule `Cc1ccc(N2CCN(Cc3nnc(-c4ccccc4)o3)CC2)cc1` [5AG, 2-Phenyl-5-((4-(p-tolyl)piperazin-1-yl)methyl)-1,3,4-oxadiazole], the “% RSA of DPPH ± SEM at 25 μM” value was found to be 36.30 ± 2.5%.

As for `COc1ccc(N2CCN(Cc3nnc(-c4ccccc4)o3)CC2)cc1` [5AH, 2-((4-(4-Methoxyphenyl)piperazin-1-yl)methyl)-5-phenyl-1,3,4-oxadiazole], the “% RSA of DPPH ± SEM at 25 μM” value was 38.78 ± 2.9%.

On to `Cc1ccc(CN2CCN(Cc3nnc(-c4ccccc4)o3)CC2)cc1` [5AI, 2-((4-(4-Methylbenzyl)piperazin-1-yl)methyl)-5-phenyl-1,3,4-oxadiazole], for which the “% RSA of DPPH ± SEM at 25 μM” value stood at 36.24 ± 2.6%.

With `O=C1O[C@H]([C@@H](O)CO)C(O)=C1O` [Ascorbic acid, reference compound], the “% RSA of DPPH ± SEM at 25 μM” value was found to be 59.65 ± 2.3%.

For the next data set, the system named is catalase (CAT). The data set is described as follows: Ex vivo catalase. As to conditions: hippocampal brain homogenate. The class given is in vivo, Swiss albino mice.
As to `c1ccc(-c2nnc(CN3CCN(c4ccccn4)CC3)o2)cc1` [5AD, 2-Phenyl-5-((4-(pyridin-2-yl)piperazin-1-yl)methyl)-1,3,4-oxadiazole], the “catalase (CAT) level in brain homogenate” value is “increase in catalase”.

In a further data set the target is PAS of hAChE (Homo sapiens, UniProt P22303). As to the kind of experiment: Propidium iodide displacement assay. The class given is binding. As to conditions: read-out: (%) PAS-AChE propidium iodide displacement (% inhibition) at 10 μM.
PAS of hAChE, sequence (P22303 32-614): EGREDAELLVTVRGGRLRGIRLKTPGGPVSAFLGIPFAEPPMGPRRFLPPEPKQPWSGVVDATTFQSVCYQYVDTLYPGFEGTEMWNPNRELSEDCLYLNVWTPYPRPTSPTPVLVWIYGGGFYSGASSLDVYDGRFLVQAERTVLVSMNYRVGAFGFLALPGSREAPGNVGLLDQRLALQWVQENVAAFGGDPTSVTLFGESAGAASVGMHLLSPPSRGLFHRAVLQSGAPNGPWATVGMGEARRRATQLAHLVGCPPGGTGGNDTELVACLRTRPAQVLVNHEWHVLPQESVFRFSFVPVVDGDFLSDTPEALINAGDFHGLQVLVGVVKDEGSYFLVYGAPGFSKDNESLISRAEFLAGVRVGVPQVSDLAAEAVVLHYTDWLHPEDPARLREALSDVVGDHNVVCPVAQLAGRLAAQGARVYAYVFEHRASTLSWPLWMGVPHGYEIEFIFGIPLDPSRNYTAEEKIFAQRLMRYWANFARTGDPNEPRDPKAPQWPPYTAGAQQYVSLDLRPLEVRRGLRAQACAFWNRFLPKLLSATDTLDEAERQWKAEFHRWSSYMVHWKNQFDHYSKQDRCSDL
As for `c1ccc(CN2CCN(Cc3nnc(-c4ccccc4)o3)CC2)cc1` [5AB, 2-((4-Benzylpiperazin-1-yl)methyl)-5-phenyl-1,3,4-oxadiazole], the inhibition at 10 µM is 18.4 ± 1.07%.

For the molecule `COc1ccc(N2CCN(Cc3nnc(-c4ccccc4)o3)CC2)cc1` [5AH, 2-((4-(4-Methoxyphenyl)piperazin-1-yl)methyl)-5-phenyl-1,3,4-oxadiazole], the inhibition at 10 µM stood at 19.2 ± 1.81%.

As to `Cc1ccc(CN2CCN(Cc3nnc(-c4ccccc4)o3)CC2)cc1` [5AI, 2-((4-(4-Methylbenzyl)piperazin-1-yl)methyl)-5-phenyl-1,3,4-oxadiazole], the inhibition at 10 µM was 17.7 ± 1.26%.

The same data set, now with this note: read-out: (%) PAS-AChE propidium iodide displacement (% inhibition) at 50 μM.
With `c1ccc(CN2CCN(Cc3nnc(-c4ccccc4)o3)CC2)cc1` [5AB, 2-((4-Benzylpiperazin-1-yl)methyl)-5-phenyl-1,3,4-oxadiazole], the inhibition at 50 µM came out at 29.5 ± 1.33%.

With `COc1ccc(N2CCN(Cc3nnc(-c4ccccc4)o3)CC2)cc1` [5AH, 2-((4-(4-Methoxyphenyl)piperazin-1-yl)methyl)-5-phenyl-1,3,4-oxadiazole], the inhibition at 50 µM was 26.7 ± 1.34%.

Tested on in the next data set: not listed separately
The data set is described as follows: in vitro. Particulars: pig, PAMPA, pH 7.4.
As to `c1ccc(-c2nnc(CN3CCN(c4ccccn4)CC3)o2)cc1` [5AD, 2-Phenyl-5-((4-(pyridin-2-yl)piperazin-1-yl)methyl)-1,3,4-oxadiazole], the Papp was 6.5 ± 0.072 ×10⁻⁶ cm/s.

`COc1ccc(N2CCN(Cc3nnc(-c4ccccc4)o3)CC2)cc1` [5AH, 2-((4-(4-Methoxyphenyl)piperazin-1-yl)methyl)-5-phenyl-1,3,4-oxadiazole] gave a Papp of 5.8 ± 0.175 ×10⁻⁶ cm/s.

The target of the next data set is T1, AChE (Mus musculus, UniProt P21836).
T1 sequence (P21836 32-614): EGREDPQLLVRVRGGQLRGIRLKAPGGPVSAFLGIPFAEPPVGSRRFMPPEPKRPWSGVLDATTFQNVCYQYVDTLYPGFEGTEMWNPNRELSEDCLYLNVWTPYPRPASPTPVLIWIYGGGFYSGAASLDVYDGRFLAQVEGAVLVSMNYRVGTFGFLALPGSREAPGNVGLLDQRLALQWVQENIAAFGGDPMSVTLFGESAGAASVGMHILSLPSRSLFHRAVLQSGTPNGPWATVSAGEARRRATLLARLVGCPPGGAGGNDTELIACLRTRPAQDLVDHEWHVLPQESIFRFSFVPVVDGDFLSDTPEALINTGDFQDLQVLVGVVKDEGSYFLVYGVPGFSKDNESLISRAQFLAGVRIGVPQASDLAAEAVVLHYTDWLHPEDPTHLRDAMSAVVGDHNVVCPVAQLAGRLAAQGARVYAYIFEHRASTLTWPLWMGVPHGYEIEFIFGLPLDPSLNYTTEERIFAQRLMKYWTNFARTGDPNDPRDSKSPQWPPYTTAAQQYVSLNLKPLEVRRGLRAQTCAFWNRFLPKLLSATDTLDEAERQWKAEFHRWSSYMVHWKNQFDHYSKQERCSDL
The data set is described as follows: Ex vivo AChE level in hippocampal brain homogenate. Also noted: species or system Swiss albino mice. As to conditions: in comparison with scopolamine-treated group.
In the case of `c1ccc(-c2nnc(CN3CCN(c4ccccn4)CC3)o2)cc1` [5AD, 2-Phenyl-5-((4-(pyridin-2-yl)piperazin-1-yl)methyl)-1,3,4-oxadiazole], the “AChE level in hippocampal brain homogenate” value was “decrease in AChE”.

The target in another data set is hAChE (Homo sapiens, UniProt P22303). The data set is described as follows: hAChE inhibition, Ellman's colorimetric method.
hAChE, sequence (P22303 32-617 isoform P22303-2 limits assumed): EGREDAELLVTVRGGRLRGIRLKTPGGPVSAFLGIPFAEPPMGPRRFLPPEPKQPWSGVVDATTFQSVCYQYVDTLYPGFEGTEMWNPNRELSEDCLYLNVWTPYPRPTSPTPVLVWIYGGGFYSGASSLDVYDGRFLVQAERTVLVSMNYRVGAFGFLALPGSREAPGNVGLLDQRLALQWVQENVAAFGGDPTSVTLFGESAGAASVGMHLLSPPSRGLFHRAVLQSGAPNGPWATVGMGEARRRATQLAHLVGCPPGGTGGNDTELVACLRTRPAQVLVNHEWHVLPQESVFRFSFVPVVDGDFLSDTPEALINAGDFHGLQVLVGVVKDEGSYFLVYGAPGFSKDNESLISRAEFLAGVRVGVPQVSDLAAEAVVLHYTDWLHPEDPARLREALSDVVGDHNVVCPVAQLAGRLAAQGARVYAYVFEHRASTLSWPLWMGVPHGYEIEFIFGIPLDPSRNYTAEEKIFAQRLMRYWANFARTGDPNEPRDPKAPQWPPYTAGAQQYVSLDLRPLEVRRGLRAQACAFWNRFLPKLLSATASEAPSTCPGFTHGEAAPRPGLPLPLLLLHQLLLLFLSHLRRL
Conditions: not given
The class given is biochemical.
For the molecule `c1ccc(-c2nnc(CN3CCN(c4ccccc4)CC3)o2)cc1` [5AA, 2-Phenyl-5-((4-phenylpiperazin-1-yl)methyl)-1,3,4-oxadiazole], the IC50 stood at 1830 ± 76 nM.

The molecule `c1ccc(CN2CCN(Cc3nnc(-c4ccccc4)o3)CC2)cc1` [5AB, 2-((4-Benzylpiperazin-1-yl)methyl)-5-phenyl-1,3,4-oxadiazole] displayed an IC50 of 1790 ± 32 nM.

`c1ccc(-c2nnc(CN3CCN(C(c4ccccc4)c4ccccc4)CC3)o2)cc1` [5AC, 2-((4-Benzhydrylpiperazin-1-yl)methyl)-5-phenyl-1,3,4-oxadiazole] had an IC50 of 3150 ± 20.2 nM. This IC50 is about 1.8-fold higher than that of the molecule before.

For the molecule `c1ccc(-c2nnc(CN3CCN(c4ccccn4)CC3)o2)cc1` [5AD, 2-Phenyl-5-((4-(pyridin-2-yl)piperazin-1-yl)methyl)-1,3,4-oxadiazole], half-maximal inhibition (IC50) was put at 103 ± 17.2 nM.

Take `O=[N+]([O-])c1ccc(N2CCN(Cc3nnc(-c4ccccc4)o3)CC2)cc1` [5AF, 2-((4-(4-Nitrophenyl)piperazin-1-yl)methyl)-5-phenyl-1,3,4-oxadiazole]: 1870 ± 44.1 nM corresponded to half-maximal inhibition (IC50).

Consider `Cc1ccc(N2CCN(Cc3nnc(-c4ccccc4)o3)CC2)cc1` [5AG, 2-Phenyl-5-((4-(p-tolyl)piperazin-1-yl)methyl)-1,3,4-oxadiazole], for which the IC50 came out at 2590 ± 16.9 nM.

For the molecule `COc1ccc(N2CCN(Cc3nnc(-c4ccccc4)o3)CC2)cc1` [5AH, 2-((4-(4-Methoxyphenyl)piperazin-1-yl)methyl)-5-phenyl-1,3,4-oxadiazole], inhibition was half-maximal at 1480 ± 71.9 nM (IC50).

Regarding `Cc1ccc(CN2CCN(Cc3nnc(-c4ccccc4)o3)CC2)cc1` [5AI, 2-((4-(4-Methylbenzyl)piperazin-1-yl)methyl)-5-phenyl-1,3,4-oxadiazole], inhibition was half-maximal at 1797 ± 8.1 nM (IC50).
